Columns and labels:
Assay in all cases: relative viability (nuclei count vs DMSO), 5 days (fraction); higher = more cells survive
[1] = compound: C[C@]12O[C@H](C[C@]1(O)CO)n1c3ccccc3c3c4c(c5c6ccccc6n2c5c31)CNC4=O [Lestaurtinib] + N=C(N)NC(=N)NCCc1ccccc1 [Phenformin] (partner 250 µM)
Outline: (§1)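 Lung cancer cell lines in 1536-well plates were dosed by pin tool the day after seeding, either with one drug alone or with a fixed anchor-drug dose plus five library-drug doses (not always all listed) in √10 steps. After 5 days, cells were fixed and their nuclei stained in one step (final 0.05% Triton X-100, 1% formaldehyde, 1 ug/ml Hoechst), then counted on 4× images. Relative viability is the nuclei count in treated wells divided by that in vehicle wells. Values are medians of duplicate plates.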

[2] = compound: C1/C(=C\C2=CC=CS2)/C(=O)/C(=C/C3=CC=CS3)/C1 + Cc1nc(NC(=O)N2CCC[C@H]2C(N)=O)sc1-c1ccnc(C(C)(C)C(F)(F)F)c1 [Alpelisib] (partner 2 µM)
Outline: as §1

TPCA-1 + Decitabine = compound: C1=CC(=CC=C1C2=CC(=C(S2)NC(=O)N)C(=O)N)F [TPCA-1] + Nc1ncn([C@H]2C[C@H](O)[C@@H](CO)O2)c(=O)n1 [Decitabine] (partner 2 µM)
Outline: as §1

[3] = compound: C[C@]12O[C@H](C[C@]1(O)CO)n1c3ccccc3c3c4c(c5c6ccccc6n2c5c31)CNC4=O [Lestaurtinib] + CS(=O)(=O)N1CCN(Cc2cc3nc(-c4cccc5[nH]ncc45)nc(N4CCOCC4)c3s2)CC1 [Pictilisib] (partner 1 µM)
Outline: as §1

| Cell Line | relative viability ([1]; first compound 0.005 µM) | relative viability ([1]; first compound 0.01581 µM) | relative viability ([1]; first compound 0.05 µM) | relative viability ([1]; first compound 0.1581 µM) | relative viability ([1]; first compound 0.5 µM) | relative viability ([2]; first compound 0.2 µM) | relative viability ([2]; first compound 0.6325 µM) | relative viability ([2]; first compound 2 µM) | relative viability ([2]; first compound 6.325 µM) | relative viability ([2]; first compound 20 µM) | relative viability (TPCA-1 + Decitabine; first compound 0.04 µM) | relative viability (TPCA-1 + Decitabine; first compound 0.1265 µM) | relative viability (TPCA-1 + Decitabine; first compound 0.4 µM) | relative viability (TPCA-1 + Decitabine; first compound 1.265 µM) | relative viability (TPCA-1 + Decitabine; first compound 4 µM) | relative viability ([3]; first compound 0.005 µM) | relative viability ([3]; first compound 0.01581 µM) | relative viability ([3]; first compound 0.05 µM) | relative viability ([3]; first compound 0.1581 µM) | relative viability ([3]; first compound 0.5 µM) |
| --- | --- | --- | --- | --- | --- | --- | --- | --- | --- | --- | --- | --- | --- | --- | --- | --- | --- | --- | --- | --- |
| NCI-H1623 | 0.609 | 0.593 | 0.557 | 0.525 | 0.51 | – | – | – | – | – | – | – | – | – | – | – | – | – | – | – |
| SK-LU-1 | 0.46 | 0.488 | 0.293 | 0.329 | 0.163 | 1.18 | 1.07 | 1.11 | 0.817 | 1.06 | 0.72 | 0.563 | 0.627 | 0.493 | 0.372 | 0.464 | 0.464 | 0.297 | 0.436 | 0.246 |
| NCI-H2085 | 0.716 | 0.664 | 0.602 | 0.65 | 0.492 | 1.22 | 1.02 | 1.04 | 0.785 | 0.97 | – | 0.531 | 0.618 | 0.579 | 0.665 | 0.482 | 0.474 | 0.465 | 0.476 | 0.49 |
| NCI-H460 | 0.583 | 0.533 | 0.401 | 0.307 | 0.0805 | 0.491 | 0.576 | 0.601 | – | 0.463 | 0.521 | 0.461 | – | 0.453 | 0.476 | 0.315 | 0.392 | 0.298 | 0.224 | 0.201 |
| Calu-6 | – | – | – | – | – | 0.971 | 1.08 | 1.04 | 0.849 | 1.01 | – | – | – | – | – | 0.875 | 0.751 | 0.357 | 0.308 | 0.142 |
| RERF-LC-KJ | 0.448 | 0.38 | 0.391 | 0.419 | 0.295 | 0.73 | 0.89 | 0.748 | 0.705 | 0.815 | 0.715 | 0.598 | 0.656 | 0.612 | 0.548 | 0.593 | 0.235 | 0.458 | 0.387 | 0.243 |
| LCLC-103H | 0.336 | 0.379 | 0.327 | 0.288 | 0.234 | 1.05 | 0.926 | 1.02 | 0.73 | 0.956 | 0.716 | 0.719 | 0.772 | 0.788 | 0.811 | 0.61 | 0.623 | 0.521 | 0.443 | 0.481 |
| HCC-15 | 0.538 | 0.55 | 0.334 | 0.305 | 0.132 | 0.926 | 0.934 | 0.823 | 0.845 | 0.871 | 0.731 | 0.546 | 0.708 | 0.625 | 0.374 | 0.854 | 0.872 | 0.609 | 0.477 | 0.176 |
| H3255 | 0.313 | 0.315 | 0.379 | 0.286 | 0.294 | 0.759 | 0.553 | 0.661 | 0.66 | 0.704 | 0.71 | 0.553 | 0.676 | 0.513 | 0.475 | 0.5 | 0.393 | 0.388 | 0.277 | 0.164 |
| NCI-H1792 | – | 0.423 | 0.3 | 0.179 | 0.178 | 0.803 | 0.763 | 0.711 | – | 0.697 | 0.674 | 0.465 | 0.551 | 0.474 | 0.307 | 0.316 | 0.302 | 0.243 | 0.141 | 0.129 |
| NCI-H1563 | 0.625 | 0.711 | 0.677 | 0.577 | 0.58 | 0.933 | 0.912 | 0.881 | 0.93 | 1.02 | – | – | – | – | – | 0.635 | 0.709 | 0.618 | 0.638 | 0.536 |
| NCI-H596 | 0.699 | 0.88 | 0.557 | 0.882 | 0.723 | 0.56 | 0.467 | 0.522 | 0.467 | 0.389 | 1.02 | 0.997 | 1.07 | 1.1 | 1.07 | 0.375 | 0.378 | 0.375 | 0.31 | 0.293 |
| NCI-H2087 | 0.462 | 0.44 | 0.43 | 0.416 | 0.344 | 1.24 | 1.14 | 1.04 | 0.917 | 1.11 | 0.255 | 0.222 | 0.311 | 0.335 | 0.152 | 0.872 | 0.745 | 0.53 | 0.689 | 0.322 |
| NCI-H522 | 0.722 | 0.614 | 0.634 | 0.552 | 0.525 | – | – | – | – | – | 0.658 | 0.674 | 0.662 | 0.646 | 0.58 | – | – | – | – | – |
| NCI-H1299 | – | – | – | – | – | 1.04 | 1.08 | 1.03 | 0.948 | 1.04 | – | – | – | – | – | 0.558 | 0.502 | 0.222 | 0.305 | 0.133 |
| ChaGo-K-1 | 0.484 | 0.447 | 0.448 | 0.333 | 0.275 | – | – | – | – | – | 0.49 | 0.453 | 0.565 | 0.499 | 0.321 | 0.726 | 1.15 | 0.663 | 0.421 | 0.356 |
| NCI-H1648 | – | – | – | – | – | – | – | – | – | – | 0.605 | 0.578 | 0.495 | 0.519 | 0.569 | – | – | – | – | – |
| EBC-1 | – | – | – | – | – | 0.852 | 0.923 | 0.947 | 0.786 | 0.845 | – | – | – | – | – | 0.427 | 0.402 | 0.35 | 0.452 | 0.21 |
| NCI-H2228 | 0.235 | 0.215 | 0.237 | 0.218 | 0.127 | 0.787 | 0.692 | 0.745 | 0.619 | 0.869 | – | – | – | – | – | 0.461 | 0.551 | 0.332 | 0.325 | 0.198 |
| IA-LM | – | – | – | – | – | 0.728 | 0.746 | 0.651 | 0.679 | 0.768 | – | – | – | – | – | 0.547 | 0.691 | 0.725 | 0.642 | 0.198 |
| NCI-H1703 | – | – | – | – | – | 0.41 | 0.453 | 0.334 | 0.287 | 0.318 | – | – | – | – | – | 0.254 | 0.217 | 0.201 | 0.173 | 0.132 |

Reference: the supplement of paper PMC10307832
